Holding throughout (type): cell-based
For experiment [1], the system named is Phospho-Rb (Ser807/811). As to the kind of experiment: Phospho-Retinoblastoma (pRB) Cellular Assay. To be noted: Homo sapiens, OVCAR-3, NIH OVCAR3 cells, 24 hours; for IC50: concentration giving 50% response; for Emax: maximum response, reference compound at 10 μM = 100%, read-out: pRB Ymax. The gist of the method:
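OVCAR3 cells seeded overnight, then dosed with serial dilutions for 24 h at 37° C. Lysed with kit mix plus phosphatase inhibitor, ≥4 h at room temperature, read on EnVision; 100% response set by reference compound at 10 μM, giving IC50 and Ymax.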

Experiment [2] deals with GSPT1 (Homo sapiens, UniProt P15170+Q96SW2). Description: GSPT1 Cellular Degradation Assay (DF15-GSPT1-ePL). Further details: expressed in transfected cells. As to conditions: DF15-GSPT1-ePL cells, 20 hours. An outline of the steps: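 Human DF15 cells co-expressing a GSPT1–ePL fusion were treated with compound in RPMI 1640/10% FBS for 20 h at 37 °C. GSPT1 level was read by enzyme-fragment-complementation luminescence after 60 min with detection reagent. The reference degrader at […] defined 75% response; DC50 and Dmax were reported.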
Sequence of GSPT1 (P15170 whole entry, the tested form may be a part): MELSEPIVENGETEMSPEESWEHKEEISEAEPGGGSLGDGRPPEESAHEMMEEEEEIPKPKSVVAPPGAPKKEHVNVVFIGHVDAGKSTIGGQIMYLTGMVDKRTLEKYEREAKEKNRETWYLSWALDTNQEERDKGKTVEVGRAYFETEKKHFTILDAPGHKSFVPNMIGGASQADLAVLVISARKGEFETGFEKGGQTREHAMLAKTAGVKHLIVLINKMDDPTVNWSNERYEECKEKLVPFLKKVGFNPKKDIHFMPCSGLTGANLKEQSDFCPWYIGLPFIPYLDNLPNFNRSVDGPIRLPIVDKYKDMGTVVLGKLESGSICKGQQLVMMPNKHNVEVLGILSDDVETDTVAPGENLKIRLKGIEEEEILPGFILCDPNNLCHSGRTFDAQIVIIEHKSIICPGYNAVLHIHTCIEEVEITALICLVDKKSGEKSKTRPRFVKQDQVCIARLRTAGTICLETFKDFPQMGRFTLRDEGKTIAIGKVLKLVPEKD
Sequence of GSPT1 (Q96SW2 whole entry, the tested form may be a part): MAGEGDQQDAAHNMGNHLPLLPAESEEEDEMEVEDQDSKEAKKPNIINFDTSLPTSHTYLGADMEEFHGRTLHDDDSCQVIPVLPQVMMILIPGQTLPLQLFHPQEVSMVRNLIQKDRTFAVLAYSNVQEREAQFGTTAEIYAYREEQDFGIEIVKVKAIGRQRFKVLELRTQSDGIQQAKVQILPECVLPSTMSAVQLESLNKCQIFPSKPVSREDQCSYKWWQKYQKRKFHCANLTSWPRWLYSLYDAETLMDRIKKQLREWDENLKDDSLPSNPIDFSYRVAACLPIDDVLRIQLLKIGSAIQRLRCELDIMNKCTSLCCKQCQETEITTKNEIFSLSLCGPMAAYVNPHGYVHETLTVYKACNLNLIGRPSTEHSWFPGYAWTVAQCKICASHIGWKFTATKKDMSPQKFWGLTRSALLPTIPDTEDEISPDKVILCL
Sequence of GSPT1 (Q16531 whole entry partner, the tested form may be a part): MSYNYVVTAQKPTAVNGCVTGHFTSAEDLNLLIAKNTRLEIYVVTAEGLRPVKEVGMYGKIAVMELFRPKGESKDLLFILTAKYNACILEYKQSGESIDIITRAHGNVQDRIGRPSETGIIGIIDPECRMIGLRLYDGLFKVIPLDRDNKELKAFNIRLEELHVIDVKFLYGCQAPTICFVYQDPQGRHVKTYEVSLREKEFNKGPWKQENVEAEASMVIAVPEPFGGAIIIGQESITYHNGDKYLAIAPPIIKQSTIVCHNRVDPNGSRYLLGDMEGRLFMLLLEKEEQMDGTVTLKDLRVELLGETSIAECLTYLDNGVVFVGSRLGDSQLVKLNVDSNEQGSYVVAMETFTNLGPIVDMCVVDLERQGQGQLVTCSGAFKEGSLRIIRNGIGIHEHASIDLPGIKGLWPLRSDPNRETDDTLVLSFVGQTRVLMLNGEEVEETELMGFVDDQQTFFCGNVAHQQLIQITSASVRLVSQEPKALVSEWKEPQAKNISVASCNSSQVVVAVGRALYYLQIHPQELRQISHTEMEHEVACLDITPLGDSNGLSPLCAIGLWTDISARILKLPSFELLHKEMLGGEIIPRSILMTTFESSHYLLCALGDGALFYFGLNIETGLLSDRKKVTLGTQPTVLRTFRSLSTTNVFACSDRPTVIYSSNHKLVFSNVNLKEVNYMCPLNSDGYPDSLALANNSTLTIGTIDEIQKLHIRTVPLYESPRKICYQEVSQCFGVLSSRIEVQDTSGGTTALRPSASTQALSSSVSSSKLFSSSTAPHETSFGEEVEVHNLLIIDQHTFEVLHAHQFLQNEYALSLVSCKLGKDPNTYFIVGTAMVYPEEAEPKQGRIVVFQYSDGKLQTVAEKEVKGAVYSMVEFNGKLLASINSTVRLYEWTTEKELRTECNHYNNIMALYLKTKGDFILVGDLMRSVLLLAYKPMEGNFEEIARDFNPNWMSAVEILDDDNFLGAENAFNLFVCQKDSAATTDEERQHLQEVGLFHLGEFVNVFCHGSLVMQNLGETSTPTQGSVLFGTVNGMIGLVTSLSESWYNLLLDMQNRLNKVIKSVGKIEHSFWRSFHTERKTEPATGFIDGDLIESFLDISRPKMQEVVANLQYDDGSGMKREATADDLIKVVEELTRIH

Experiment [3] addresses Cyclin E1 (Homo sapiens, UniProt P24864+Q96SW2). As to the kind of experiment: Cyclin E1 Cellular Degradation Assay (MSD). To be noted: for DC50 / Dmax: Cyclin E1 cellular degradation; for Dmax: maximum degradation; for Ratio of GSPT1 DC50/Cyclin E1 DC50: selectivity for degradation of Cyclin E1 over GSPT1. Further details: endogenous in cells; host or cells: OVCAR3. The gist of the method: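 OVCAR3 cells treated with compound for 24 h at 37 °C, lysed, and cyclin E1 measured by MSD sandwich immunoassay (rabbit capture, mouse detection anti-CCNE1). Reference degrader at […] defined 110% response; DC50 and Dmax derived from response.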

Molecules are shown by their SMILES.

Sequence of Cyclin E1 (P24864 whole entry): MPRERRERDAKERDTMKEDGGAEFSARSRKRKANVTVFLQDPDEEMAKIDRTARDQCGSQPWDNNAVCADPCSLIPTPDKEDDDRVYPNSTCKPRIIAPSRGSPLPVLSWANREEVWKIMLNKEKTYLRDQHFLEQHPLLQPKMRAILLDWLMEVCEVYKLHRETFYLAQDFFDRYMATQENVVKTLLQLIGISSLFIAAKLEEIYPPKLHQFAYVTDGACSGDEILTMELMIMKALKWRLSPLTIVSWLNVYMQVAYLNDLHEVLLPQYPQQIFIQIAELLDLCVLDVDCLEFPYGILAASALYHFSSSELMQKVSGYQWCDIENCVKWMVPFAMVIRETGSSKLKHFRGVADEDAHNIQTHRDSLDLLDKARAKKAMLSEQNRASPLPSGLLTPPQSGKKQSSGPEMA
Sequence of Cyclin E1 (Q96SW2 whole entry): as the sequence (Q96SW2 whole entry, the tested form may be a part) above
Sequence of Cyclin E1 (Q16531 whole entry partner): as the sequence (Q16531 whole entry partner, the tested form may be a part) above

Turning to `CC(C)Oc1c(COC(=O)Nc2ccc(Oc3ccc(F)cc3)cc2)ccc2c1C(=O)N(C1CCC(=O)NC1=O)C2` (stereo not drawn) [Example 59, [2-(2,6-dioxopiperidin-3-yl)-3-oxo-4-(propan-2-yloxy)-2,3-dihydro-1H-isoindol-5-yl]methyl N-[4-(4-fluorophenoxy)phenyl]carbamate], in experiment [1], 175 nM corresponded to half-maximal inhibition (IC50) and the Emax was 113%. Further, in experiment [2], the DC50 was over 14000 nM and the Dmax came out at 48%. In addition, in experiment [3], half-maximal degradation (DC50) was put at 131 nM, the Dmax was 104% and the “Ratio of GSPT1 DC50/Cyclin E1 DC50” value was over 107.
Consider `O=C1CCC(N2Cc3ccc(COC(=O)Nc4ccc(Oc5ccccc5)cc4)c(OC(F)F)c3C2=O)C(=O)N1` (stereo not drawn) [Example 60, [4-(difluoromethoxy)-2-(2,6-dioxopiperidin-3-yl)-3-oxo-2,3-dihydro-1H-isoindol-5-yl]methyl N-(4-phenoxyphenyl)carbamate], for which, in experiment [1], it took 503 nM to reach half-maximal inhibition (IC50) and the Emax was determined as 109%. Also, in experiment [2], the DC50 is over 14000 nM and the Dmax came out at 19%. Also, in experiment [3], the half-maximal degradation concentration (DC50) was determined as 184 nM, the Dmax came to 104% and the “Ratio of GSPT1 DC50/Cyclin E1 DC50” value is on record as over 76.
As for `O=C1CCC(N2Cc3ccc(COC(=O)Nc4ccc(Oc5ccc(F)c(F)c5)cc4)c(OC(F)F)c3C2=O)C(=O)N1` (stereo not drawn) [Example 61, [4-(difluoromethoxy)-2-(2,6-dioxopiperidin-3-yl)-3-oxo-2,3-dihydro-1H-isoindol-5-yl]methyl N-[4-(3,4-difluorophenoxy)phenyl]carbamate], in experiment [1], the concentration for half-maximal inhibition (IC50) came out at 412 nM and the Emax came to 107%. In experiment [2], the DC50 is over 14000 nM and the Dmax turned out to be 22%. Further, in experiment [3], the DC50 was 157 nM, the Dmax came to 104% and the “Ratio of GSPT1 DC50/Cyclin E1 DC50” value is over 89.
For the compound `O=C1CCC(N2Cc3ccc(COC(=O)Nc4ccc(Oc5ccccc5)cc4)c(Oc4ccccc4)c3C2=O)C(=O)N1` (stereo not drawn) [Example 62, [2-(2,6-dioxopiperidin-3-yl)-3-oxo-4-phenoxy-2,3-dihydro-1H-isoindol-5-yl]methyl N-(4-phenoxyphenyl)carbamate], in experiment [1], it took 676 nM to reach half-maximal inhibition (IC50) and the Emax worked out at 94%. Also, in experiment [2], the half-maximal degradation concentration (DC50) is over 14000 nM and the Dmax was found to be 33%. For the same compound, in experiment [3], the DC50 came to 98 nM, the Dmax was 102% and the “Ratio of GSPT1 DC50/Cyclin E1 DC50” value was over 143.
As for `O=C1CCC(N2Cc3ccc(COC(=O)Nc4ccc(Oc5ccc(F)c(F)c5)cc4)c(Oc4ccccc4)c3C2=O)C(=O)N1` (stereo not drawn) [Example 63, [2-(2,6-dioxopiperidin-3-yl)-3-oxo-4-phenoxy-2,3-dihydro-1H-isoindol-5-yl]methyl N-[4-(3,4-difluorophenoxy)phenyl]carbamate], in experiment [1], 136 nM corresponded to half-maximal inhibition (IC50) and the Emax turned out to be 121%. In experiment [2], the half-maximal degradation concentration (DC50) was over 14000 nM and the Dmax was 41%. Besides, in experiment [3], it took 113 nM to reach half-maximal degradation (DC50), the Dmax was 104% and the “Ratio of GSPT1 DC50/Cyclin E1 DC50” value is on record as over 124.
Turning to `O=C1CCC(N2Cc3ccc(COC(=O)Nc4ccc(Oc5cccc(F)c5)cc4)c(Oc4ccccc4)c3C2=O)C(=O)N1` (stereo not drawn) [Example 64, [2-(2,6-dioxopiperidin-3-yl)-3-oxo-4-phenoxy-2,3-dihydro-1H-isoindol-5-yl]methyl N-[4-(3-fluorophenoxy)phenyl]carbamate], in experiment [1], the IC50 is 83 nM and the Emax was 111%. Besides, in experiment [2], the DC50 was over 14000 nM and the Dmax was 22%. For the same compound, in experiment [3], the DC50 was determined as 133 nM, the Dmax stood at 109% and the “Ratio of GSPT1 DC50/Cyclin E1 DC50” value is given as over 105.
With `O=C1CCC(N2Cc3ccc(COC(=O)Nc4ccc(Oc5ccccc5F)cc4)c(Oc4ccccc4)c3C2=O)C(=O)N1` (stereo not drawn) [Example 65, [2-(2,6-dioxopiperidin-3-yl)-3-oxo-4-phenoxy-2,3-dihydro-1H-isoindol-5-yl]methyl N-[4-(2-fluorophenoxy)phenyl]carbamate], in experiment [1], half-maximal inhibition (IC50) required 59 nM and the Emax is 127%. Besides, in experiment [2], the 50% degradation concentration (DC50) was over 14000 nM and the Dmax was determined as 0%. For the same compound, in experiment [3], half-maximal degradation (DC50) was put at 164 nM, the Dmax came to 101% and the “Ratio of GSPT1 DC50/Cyclin E1 DC50” value is listed as over 85.
As for `O=C1CCC(N2Cc3ccc(COC(=O)Nc4ccc(Oc5ccccc5Cl)cc4)c(Oc4ccccc4)c3C2=O)C(=O)N1` (stereo not drawn) [Example 66, [2-(2,6-dioxopiperidin-3-yl)-3-oxo-4-phenoxy-2,3-dihydro-1H-isoindol-5-yl]methyl N-[4-(2-chlorophenoxy)phenyl]carbamate], in experiment [1], it took 55 nM to reach half-maximal inhibition (IC50) and the Emax turned out to be 148%. Further, in experiment [2], the half-maximal degradation concentration (DC50) is over 14000 nM and the Dmax is 19%. Further, in experiment [3], the DC50 amounted to 111 nM, the Dmax was 103% and the “Ratio of GSPT1 DC50/Cyclin E1 DC50” value is listed as over 126.
In the case of `O=C1CCC(N2Cc3ccc(COC(=O)Nc4ccc(Oc5ccc(F)cc5F)cc4)c(Oc4ccccc4)c3C2=O)C(=O)N1` (stereo not drawn) [Example 67, [2-(2,6-dioxopiperidin-3-yl)-3-oxo-4-phenoxy-2,3-dihydro-1H-isoindol-5-yl]methyl N-[4-(2,4-difluorophenoxy)phenyl]carbamate], in experiment [1], inhibition was half-maximal at 144 nM (IC50) and the Emax was 127%. Moreover, in experiment [2], the 50% degradation concentration (DC50) is over 14000 nM and the Dmax amounted to 10%. Besides, in experiment [3], the 50% degradation concentration (DC50) was found to be 112 nM, the Dmax came out at 99% and the “Ratio of GSPT1 DC50/Cyclin E1 DC50” value is reported as over 125.
For the compound `O=C1CCC(N2Cc3ccc(COC(=O)Nc4ccc(Oc5cccc(F)c5F)cc4)c(Oc4ccccc4)c3C2=O)C(=O)N1` (stereo not drawn) [Example 68, [2-(2,6-dioxopiperidin-3-yl)-3-oxo-4-phenoxy-2,3-dihydro-1H-isoindol-5-yl]methyl N-[4-(2,3-difluorophenoxy)phenyl]carbamate], in experiment [1], the IC50 stood at 83 nM and the Emax is 127%. Moreover, in experiment [2], the DC50 was over 14000 nM and the Dmax amounted to 16%. Moreover, in experiment [3], the half-maximal degradation concentration (DC50) was 179 nM, the Dmax was found to be 107% and the “Ratio of GSPT1 DC50/Cyclin E1 DC50” value is on record as over 78.
Turning to `O=C1CCC(N2Cc3ccc(COC(=O)Nc4ccc(Oc5ccc(F)c(F)c5)cc4F)c(Oc4ccccc4)c3C2=O)C(=O)N1` (stereo not drawn) [Example 69, [2-(2,6-dioxopiperidin-3-yl)-3-oxo-4-phenoxy-2,3-dihydro-1H-isoindol-5-yl]methyl N-[4-(3,4-difluorophenoxy)-2-fluorophenyl]carbamate], in experiment [1], the IC50 came out at 94 nM and the Emax amounted to 125%. In experiment [2], the DC50 is over 14000 nM and the Dmax was determined as 11%. In experiment [3], the DC50 was 263 nM, the Dmax is 105% and the “Ratio of GSPT1 DC50/Cyclin E1 DC50” value is on record as over 53.
As for `O=C1CCC(N2Cc3ccc(COC(=O)Nc4ccc(Oc5ccc(F)cc5Cl)cc4)c(Oc4ccccc4)c3C2=O)C(=O)N1` (stereo not drawn) [Example 70, [2-(2,6-dioxopiperidin-3-yl)-3-oxo-4-phenoxy-2,3-dihydro-1H-isoindol-5-yl]methyl N-[4-(2-chloro-4-fluorophenoxy)phenyl]carbamate], in experiment [1], the IC50 came to 223 nM and the Emax is 114%. For the same compound, in experiment [2], the DC50 is over 14000 nM and the Dmax was determined as 9%. In experiment [3], the 50% degradation concentration (DC50) was 185 nM, the Dmax stood at 94% and the “Ratio of GSPT1 DC50/Cyclin E1 DC50” value is reported as over 76.
In the case of `COc1c(COC(=O)Nc2ccc(Oc3ccc(Cl)c(F)c3)cc2)ccc2c1C(=O)N(C1CCC(=O)NC1=O)C2` (stereo not drawn) [Example 71, [2-(2,6-dioxopiperidin-3-yl)-4-methoxy-3-oxo-2,3-dihydro-1H-isoindol-5-yl]methyl N-[4-(4-chloro-3-fluorophenoxy)phenyl]carbamate], in experiment [1], the midpoint of inhibition, the IC50, lay at 234 nM and the Emax is 97%. In addition, in experiment [2], the 50% degradation concentration (DC50) is over 14000 nM and the Dmax was 27%. In experiment [3], half-maximal degradation (DC50) was put at 241 nM, the Dmax worked out at 105% and the “Ratio of GSPT1 DC50/Cyclin E1 DC50” value is recorded as over 58.
As to `COc1cc(Oc2cc(F)c(F)c(F)c2)ccc1NC(=O)OCc1ccc2c(c1OC)C(=O)N(C1CCC(=O)NC1=O)C2` (stereo not drawn) [Example 72, [2-(2,6-dioxopiperidin-3-yl)-4-methoxy-3-oxo-2,3-dihydro-1H-isoindol-5-yl]methyl N-[2-methoxy-4-(3,4,5-trifluorophenoxy)phenyl]carbamate], in experiment [1], the IC50 worked out at 364 nM and the Emax is 120%. Further, in experiment [2], the DC50 was over 14000 nM and the Dmax was 5%. Besides, in experiment [3], the 50% degradation concentration (DC50) stood at 394 nM, the Dmax was 103% and the “Ratio of GSPT1 DC50/Cyclin E1 DC50” value is over 36.
Take `COc1cc(Oc2cc(F)c(F)cc2C)ccc1NC(=O)OCc1ccc2c(c1OC)C(=O)N(C1CCC(=O)NC1=O)C2` (stereo not drawn) [Example 73, [2-(2,6-dioxopiperidin-3-yl)-4-methoxy-3-oxo-2,3-dihydro-1H-isoindol-5-yl]methyl N-[4-(4,5-difluoro-2-methylphenoxy)-2-methoxyphenyl]carbamate]: in experiment [1], the 50% inhibitory concentration (IC50) came to 272 nM and the Emax came to 118%. Further, in experiment [2], the DC50 was over 14000 nM and the Dmax is 27%. In addition, in experiment [3], it took 312 nM to reach half-maximal degradation (DC50), the Dmax came out at 102% and the “Ratio of GSPT1 DC50/Cyclin E1 DC50” value is listed as over 45.

A word on the IC50: it is the midpoint of a concentration-inhibition curve. High values mean lower potency, low ones higher potency. A word on the DC50: it is the midpoint of the concentration-degradation curve. A high value points to a less potent degrader. The Dmax is the greatest extent of degradation seen.

(Values after patent US20250084056A1, “SUBSTITUTED OXOISOINDOLINYL PIPERIDINE-2,6-DIONE COMPOUNDS” (BRISTOL-MYERS SQUIBB COMPANY, priority 2023, published 2025).)
